Measured values reported in US20090124631A1, “Combination Therapy” (priority 2007, published 2009).

Assays:
[1] = tested on: human Du145 prostate tumor xenograft; test: Du145 prostate tumor xenograft, combination with taxol; format: in vivo, mouse; details: Du145, oral once daily 14 days with taxol 60 mg/kg i.v.
Procedure: Antitumor studies were done using human Du145 prostate tumor xenograft model in male BALBc/A nude mice (from Japan Crea Inc., Japan). Male nude mice were used at age 8-10 weeks. Human carcinoma cells were injected subcutaneously in the animal flank and allowed to form solid tumors. Tumor fragments (about 2 mm^2 fragments) were then removed and implanted subcutaneously to the right flank of other animals. When the tumor sizes reached about 100 to 200 mm^3, recipient animals were treated with Compound D, Compound E, Compound F, Compound G or Compound H (suspended with 0.5% HPMC) by oral administration alone, or taxol by i.v. injection (60 mg/kg), or combination of taxol with oral administration of Compound D, Compound E, Compound F, Compound G, Compound H. Typically, taxol was administered once per week by iv injection on the first day as a single administration, while Compound D, Compound E, Compound F, Compound G, or Compound H were administered once daily for 14 days. Tumor volumes and gross body weight of animals were monitored twice weekly for up to 2 weeks. Each experimental group contained at least 6 animals.

HDAC3 = molecular target: T1, HDAC3 (Homo sapiens, UniProt O15379); test: Fluorescence-based HDAC enzyme assay, recombinant HDAC3; format: biochemical; details: recombinant human HDAC enzyme in vitro; read-out: IC50 (μM) HD3
T1 construct: cDNAs corresponding to the full length human HDAC1, 2, 3 and 11 were cloned into pBlueBac4.5 vector; FLAG (C); made in house; host or cells: Sf-9 insect cells (baculovirus)
T1 sequence (O15379 whole entry): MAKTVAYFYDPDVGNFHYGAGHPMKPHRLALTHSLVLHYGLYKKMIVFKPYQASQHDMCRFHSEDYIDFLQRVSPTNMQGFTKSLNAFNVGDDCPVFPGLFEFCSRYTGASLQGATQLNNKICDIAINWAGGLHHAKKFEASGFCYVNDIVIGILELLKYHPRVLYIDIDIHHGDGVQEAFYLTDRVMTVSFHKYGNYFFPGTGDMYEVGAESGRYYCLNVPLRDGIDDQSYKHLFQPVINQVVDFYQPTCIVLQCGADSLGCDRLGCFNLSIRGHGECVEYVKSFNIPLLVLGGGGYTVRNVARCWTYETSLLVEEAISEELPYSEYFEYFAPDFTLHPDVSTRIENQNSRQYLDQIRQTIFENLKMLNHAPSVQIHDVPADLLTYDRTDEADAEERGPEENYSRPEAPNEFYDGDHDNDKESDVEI
From the text: cDNAs of human HDAC1-8 and 11 were generated by RT-PCR reactions using primers complementary to the 5′ and 3′ coding sequence of human HDAC gene sequences in GenBank. cDNAs corresponding to the full length human HDAC1, 2, 3 and 11 were cloned into pBlueBac4.5 vector (Invitrogen). The constructs were used to generate recombinant baculoviruses using the Bac-N-Blue™ DNA according to the manufacturer's instructions (Invitrogen). The recombinant HDAC1, 2, 3, 11 proteins produced harbor a FLAG tag at their C-termini. cDNAs encoding truncated versions of HDAC4, 5 and 7 encompassing their deacetylase domains were cloned into pDEST10 as an N-terminal hexahistidine fusion protein and recombinant baculoviruses were generated using the Bac-to-Bac™ Baculovirus expression system (Invitrogen). HDAC6 and 8 were cloned as full length N-terminally His-tagged protein. All HDAC proteins were expressed in insect Sf-9 cells (Spodoptera frugiperdai) upon infection with recombinant baculovirus. HDAC1 enzyme was purified from the Q-sepharose FF column (Amersham Pharmacia Biotech, Baie d'Urfe QC, Canada) followed by an anti-FLAG immunoaffinity column (Sigma). HDAC2, 3 and 11 were purified using Flag-antibody immunoaffinity purification. HDAC4, 5, 6, 7 and 8 were purified using either Ni-NTA resin (QIAGEN Mississauga ON, Canada) or His-Select resin (Sigma) with step washes and elution with different concentrations of imidazole in Buffer containing 25 mM Tris (or NaPO4) pH 8.0, 10% glycerol and 150 mM or 500 mM NaCl.
Recombinant HDAC enzymes were incubated with diluted compounds in assay buffer (25 mM Hepes, pH 8.0, 137 mM NaCl, 1 mM MgCl2 and 2.7 mM KCl) for 10 minutes at ambient temperatures in black 96-well plate. Boc-Lys(Ac)-AMC (for HDAC1, 2, 3, 6, and 8 enzymes), which was purchased from Bachem Biosciences Inc., (King of Prussia, Philadelphia) were added into enzyme-compound mixture and incubated at 37° C. […] After 30 minutes, fluorescence was measured using a fluorometer (SPECTRAMAX GeminiXS, Molecular Devices, Sunnylvale, Calif.). […]

[2] = tested on: TSP-1 transcription in mouse stromal cells in implanted H460 tumors; test: TSP-1 transcription in mouse stromal cells of implanted H460 tumors; format: in vivo; details: Compound A 100 mg/kg, Compound B 40 mg/kg, 5 repeated oral doses
Procedure: […] Each group contains three mice. […] The expression level of TSP-1 mRNA was detected by ABI7700 analyzer using probe/primer pre-mixture reagent (ABI, Cat# Mm01335418 ml) and TaqMan® Universal PCR Master Mix (ABI, Cat# 430-4437) as described in the ABI's protocol.

[3] = tested on: TSP-1 (THBS1) transcription in human cancer HCT15 cells; test: Microarray analysis of TSP-1 (THBS1) transcription in HCT15 cells; format: cell-based; details: HCT15 cells in vitro, 24 hours
From the text: Total RNAs were extracted and RNA quality analysis was done using Agilent 2100 bioanalyzer and Agilent's RNA Labchip kits. RNAs were labeled with either Cy3 or Cy5 using Agilent's optimized labeling kits and hybridized to Human whole genome 44K Oligo Microarray (Agilent, Palo Alto, Calif.). Slides were scanned using DNA microarry scanner from Agilent and the raw data was extracted using Agilent's image analysis tool (feature extraction software). Normalization and statistical analysis were performed using GeneSpring software. Biological analysis was performed using Biointerpreter software.

[4] = tested on: human H460 non-small cell lung tumor, Du145 prostate tumor, TSU-Pr1 prostate tumor, and AZ521 gastric tumor xenograft; test: Xenograft combination studies with taxol (Example 15); format: in vivo, mouse; details: oral administration, nude mice with human lung, prostate and gastric tumors
Procedure: Antitumor studies were done using human H460 non-small cell lung tumor, Du145 prostate tumor, TSU-Pr1 prostate tumor, and AZ521 gastric tumor xenograft model in male BALBc/A nude mice (from Japan Crea Inc., Japan). Male nude mice were used at age 8-10 weeks. Human carcinoma cells were injected subcutaneously in the animal flank and allowed to form solid tumors. Tumor fragments (about 2 mm^3 fragments) were then removed and implanted subcutaneously through a small surgical incision to the right flank of other animals. […] Tumor volumes and gross body weight of animals were monitored twice weekly for up to 2 weeks for AZ-521 and TSU-Pr1, or 4 weeks for H460 and Du145 xenografts. Each experimental group contained 6 animals.

`CN1CCN(c2ccc(C(=O)Nc3cc(-c4ccncc4)ccc3N)cc2)CC1` [Compound G] was tested, and the “antitumor activity of taxol” value [1] was “Potentiation”.
In the case of `Nc1ccc(-c2ccccc2)cc1NC(=O)c1ccc(N2CCC(N)CC2)cc1` [Compound E], the “antitumor activity of taxol” value [1] is reported as “Potentiation”.
In the case of `Nc1ccccc1NC(=O)c1ccc(N2CC[C@H](Nc3cccnc3)C2)cc1` [Compound B], the IC50 (HDAC3) is reported as 0.3 µM, the “TSP-1 transcription in mouse stromal cells” value [2] is reported as “induction” and the “TSP-1 (THBS1) transcription” value [3] is reported as “induction”. For the same compound, the “antitumor activity of taxol” value [4] was “Potentiation”.
With `CC(C)N1CCN(c2ccc(C(=O)Nc3cc(-c4ccncc4)ccc3N)cc2)CC1` [Compound H] the “antitumor activity of taxol” value [1] was “Potentiation”.
In the case of `Nc1ccc(-c2ccccc2)cc1NC(=O)c1ccc(N2CC[C@H](N)C2)cc1` [Compound D], the IC50 (HDAC3) is reported as 9 µM and the “antitumor activity of taxol” value [1] is reported as “Potentiation”.
`CN1CCN(c2ccc(C(=O)Nc3cc(-c4ccccn4)ccc3N)cc2)CC1` [Compound F] was tested, and the “antitumor activity of taxol” value [1] was “Potentiation”.
`Nc1ccccc1NC(=O)c1ccc(CNc2nccc(-c3cccnc3)n2)cc1` [Compound A] was tested, and the “TSP-1 transcription in mouse stromal cells” value [2] was “induction”, the “TSP-1 (THBS1) transcription” value [3] was “induction” and the “antitumor activity of taxol” value [4] was “Potentiation”.
